Measurements: EP3147364A1, “ANTIVIRAL AGENTS COMPRISING AN OLIGONUCLEOTIDE-LIPID CONJUGATE FORMING G-QUADRUPLEX” (priority 2015, dated 2017)

Key:
[1] = Cytotoxicity (viability) assay in Huh7/Scr cells (CytoTox-Glo); type: cell-based; conditions: human
Luc-Jc1 virus = test: HCVcc infection: Luc-Jc1 virus on Huh7/Scr cells, Firefly luciferase
NL4.3-Ren [2] = type: cell-based, HIV-1; conditions: text does not say which of assays A and B (Figs. 4 and 5)
NL4.3-Ren [3] = test: Transfection experiment: pNL4.3-Ren viruses produced in 293T cells in presence of drug, quantified and tested for infectivity on SupT1 cells; type: cell-based, HIV-1; conditions: drug added to transfected 293T cells for 24h; supernatants on SupT1 cells (Fig. 7a)

Q: For `Cc1nc(Nc2ncc(C(=O)Nc3c(C)cccc3Cl)s2)cc(N2CCN(CCO)CC2)n1` [Dasatinib], which CC50 at 72 h [1] is on record?
A: 20.3 µM

Q: And the EC50 (Luc-Jc1 virus; Hepatitis C virus, Huh-7, 72 h)?
A: 1.47 µM

Q: And the SI (Luc-Jc1 virus; Selectivity Index from EC50 and CC50)?
A: 13.81

Q: For `CCCC/C=C\C/C=C\CCCCCCCCCOCC(O)CO` (centres unmarked) [3-[(10Z,13Z)-octadeca-10,13-dien-1-yloxy]propane-1,2-diol], which antiviral effect (NL4.3-Ren [2]) is on record?
A: no effect

Q: With `CC(C)CN(C[C@@H](O)[C@H](Cc1ccccc1)NC(=O)O[C@H]1CCOC1)S(=O)(=O)c1ccc(N)cc1` [APV, Amprenavir] as the compound, how does the “inhibition of infection by viruses produced in presence of drug” value (NL4.3-Ren [3]) read?
A: inhibition of infection is detected
